Tests used:
[1] = Gravimetric vapor sorption (GVS); format: physicochemical; conditions: for XRPD post GVS / XRPD after GVS: solid form after the sorption cycle
Experimental: Sorption isotherms were obtained using a SMS DVS Intrinsic moisture sorption analyzer, controlled by DVS Intrinsic Control software v1.0.0.30. The sample temperature was maintained at 25° C. by the instrument controls. The humidity was controlled by mixing streams of dry and wet nitrogen, with a total flow rate of 200 mL/min. The relative humidity (RH) was measured by a calibrated Rotronic probe (dynamic range of 1.0-100% RH), located near the sample. The weight change, (mass relaxation) of the sample as a function of % RH was constantly monitored by the microbalance (accuracy ±0.005 mg). Typically 5-20 mg of sample was placed in a tared mesh stainless steel basket under ambient conditions. The sample was loaded and unloaded at 40% RH and 25° C. (typical room conditions). A moisture sorption isotherm was performed as outlined below (2 scans giving 1 complete cycle). The standard isotherm was performed at 25° C. at 10% RH intervals over a 0-90% RH range. Data analysis was undertaken in Microsoft Excel using DVS Analysis Suite v6.0.0.7.

[2] = Solid-state storage stability at elevated temperature and humidity (XRPD); format: physicochemical
Experimental: One hundred milligrams of the amorphous form of the compound of Formula I was solubilized into 5 volumes of ethyl acetate or acetone under constant stirring at respectively 70° C. or 50° C. (experiment performed in duplicate). […] Systems were then allowed to equilibrate at initial temperature for 1 hour (crashing out reported in all cases). Some samples were then filtered at respectively 70° C. or 50° C. Other samples were cooled to 0° C. at 0.1° C./min. Suspensions were observed after 1 hour slurrying at 0° C. Ten volumes of solvent were added to each sample and the systems were allowed to equilibrate at 0° C. for 1 hour. One aliquot of each condition was filtered under reduced pressure, dried for 16 hours at 70° C. and 3 mbar and characterized by XRPD, ^1H-NMR and HPLC (Table 6).
Ca. 0.5 g of the compound of Formula I was weighed in a 10 mL vial, 15 vol. of IPAc were added. The suspension was heated to 50° C., 2.5 eq of acid added (from a stock solution 1 M in THF) and then cooled to 5° C. at 0.1° C. min^−1. Suspension was filtered with vacuum and allowed to dry under these conditions for 4 h. Samples were analyzed by XRPD to check the conversion and then they were dried under vacuum at 30° C. for 20 h. […] The suspension was heated to 50° C. and additional 0.5 eq of acid added from a stock solution 1 M in THF. The suspension was then cooled to 5° C. at 0.1° C. min^−1. The solid was filtered with vacuum and allowed to dry under these conditions for 4 h. The solid was analyzed by XRPD to check the conversion and then it was dried under vacuum at 30° C. for 20 h.

P-gp = target: T1, P-gp (Homo sapiens, UniProt P08183); assay: P-gp substrate assessment (BA/AB transport ratio, with or without cyclosporine A); format: in vitro ADME
T1 construct: endogenous in cells; host or cells: Caco-2
T1 sequence (P08183 whole entry): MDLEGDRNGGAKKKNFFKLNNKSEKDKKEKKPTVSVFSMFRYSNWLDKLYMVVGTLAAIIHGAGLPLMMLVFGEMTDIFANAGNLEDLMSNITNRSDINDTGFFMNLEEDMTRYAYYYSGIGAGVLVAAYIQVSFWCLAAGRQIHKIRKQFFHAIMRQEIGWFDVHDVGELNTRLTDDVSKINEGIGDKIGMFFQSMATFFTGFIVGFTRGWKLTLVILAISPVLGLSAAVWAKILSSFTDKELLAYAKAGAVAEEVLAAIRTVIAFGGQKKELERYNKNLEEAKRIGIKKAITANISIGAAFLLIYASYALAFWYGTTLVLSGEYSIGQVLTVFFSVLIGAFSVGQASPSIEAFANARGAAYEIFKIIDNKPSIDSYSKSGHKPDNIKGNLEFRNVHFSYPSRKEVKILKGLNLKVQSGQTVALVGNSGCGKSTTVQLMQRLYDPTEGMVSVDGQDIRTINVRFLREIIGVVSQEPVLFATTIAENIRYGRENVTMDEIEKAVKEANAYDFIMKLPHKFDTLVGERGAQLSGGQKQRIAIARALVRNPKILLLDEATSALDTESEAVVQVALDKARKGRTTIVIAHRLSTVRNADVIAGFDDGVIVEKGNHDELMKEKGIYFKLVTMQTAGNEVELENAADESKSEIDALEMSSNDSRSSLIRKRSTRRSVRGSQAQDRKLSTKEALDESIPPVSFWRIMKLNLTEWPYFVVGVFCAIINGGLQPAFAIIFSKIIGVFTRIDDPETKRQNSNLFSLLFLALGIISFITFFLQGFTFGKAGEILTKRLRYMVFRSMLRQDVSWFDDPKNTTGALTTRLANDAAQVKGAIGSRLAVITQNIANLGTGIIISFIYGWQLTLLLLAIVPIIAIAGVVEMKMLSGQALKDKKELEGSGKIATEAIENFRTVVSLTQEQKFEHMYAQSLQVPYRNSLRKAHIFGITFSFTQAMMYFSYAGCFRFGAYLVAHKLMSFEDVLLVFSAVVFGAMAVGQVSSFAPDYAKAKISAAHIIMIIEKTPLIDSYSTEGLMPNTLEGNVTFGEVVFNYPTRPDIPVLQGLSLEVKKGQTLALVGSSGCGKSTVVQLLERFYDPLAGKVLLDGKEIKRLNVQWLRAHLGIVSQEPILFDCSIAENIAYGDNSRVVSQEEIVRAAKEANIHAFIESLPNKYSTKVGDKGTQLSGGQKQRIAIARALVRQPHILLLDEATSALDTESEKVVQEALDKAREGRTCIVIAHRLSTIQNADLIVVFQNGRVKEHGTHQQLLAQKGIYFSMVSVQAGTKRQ

[3] = Absolute oral bioavailability in rats; conditions: rat, in vivo, dosed as a solution in 0.5% TPGS/37.5% PEG200/60% PBS, 10 mg/kg PO and 2 mg/kg IV
Experimental: The desired route of administration for the compound of Formula I is oral. The absolute oral bioavailability in rats was determined to be approximately 4-8% when dosed as a solution in 0.5% TPGS/37.5% PEG200/60% PBS. The doses were 10 mg/kg PO and 2 mg/kg IV.

[4] = Half-life in human hepatocytes; format: in vitro ADME
Experimental: Furthermore, the half-life in human hepatocytes was in the mid/long range of >8 hours for the compound of Formula I. Consequently, rapid hepatic clearance is unlikely to contribute to low oral bioavailability.

[5] = Thermodynamic aqueous solubility; format: physicochemical; conditions: for thermodynamic aqueous solubility, rank order: solubility decreases in the printed order
Experimental: The suspension was equilibrated at 25° C. for 24 hours then the pH was measured. The suspension was then filtered through a glass fibre C filter. The filtrate was then diluted by an appropriate factor, e.g. 101. Quantitation was by HPLC with reference to a standard solution of approximately 0.25 mg/mL in DMSO. Different volumes of the standard, diluted and undiluted sample solutions were injected.

Caco-2 cell model = assay: Permeability in the 3-day Caco-2 cell model; format: in vitro ADME

With `COC(=O)N[C@H](C(=O)N1CCC[C@H]1c1nc2ccc(-c3csc4c(-c5ccc(-c6cnc([C@@H]7CCCN7C(=O)[C@H](NC(=O)OC)c7ccccc7)[nH]6)cc5)csc34)cc2[nH]1)C(C)C` [Form A, methyl N-{(1R)-2-[(2S)-2-{5-[4-(6-{2-[(2S)-1-{(2S)-2-[(methoxycarbonyl)amino]-3-methylbutanoyl}pyrrolidin-2-yl]-3H-benzimidazol-5-yl}thieno[3,2-b]thiophen-3-yl)phenyl]-1H-imidazol-2-yl}pyrrolidin-1-yl]-2-oxo-1-phenylethyl}carbamate] the “GVS weight uptake at 90% RH” value ([1]; 25° C., 90% RH) was 1.16 wt %, the “XRPD post GVS / XRPD after GVS” value [1] was “Form A” and the “Stability 25° C./92% RH (XRPD after 11 days)” value ([2]; 25° C./92% RH, 11 days) was “Form A”. The “Stability 40° C./75% RH (XRPD after 11 days)” value ([2]; 40° C./75% RH, 11 days) was “Form A” and the “effect of GVS analysis and storage at elevated temperature and humidity on the crystals” value ([2]; eleven days, recrystallized 100 mg scale samples) was “remained as Form A”.
With `COC(=O)N[C@H](C(=O)N1CCC[C@H]1c1nc2ccc(-c3csc4c(-c5ccc(-c6cnc([C@@H]7CCCN7C(=O)[C@H](NC(=O)OC)c7ccccc7)[nH]6)cc5)csc34)cc2[nH]1)C(C)C` [compound of Formula I, methyl N-{(1R)-2-[(2S)-2-{5-[4-(6-{2-[(2S)-1-{(2S)-2-[(methoxycarbonyl)amino]-3-methylbutanoyl}pyrrolidin-2-yl]-3H-benzimidazol-5-yl}thieno[3,2-b]thiophen-3-yl)phenyl]-1H-imidazol-2-yl}pyrrolidin-1-yl]-2-oxo-1-phenylethyl}carbamate] the “effect from addition of P-gp inhibitor cyclosporine A” value (P-gp) was “absence of effect”, the P-gp substrate (P-gp; deduced from BA/AB transport ratio and cyclosporine A addition) was “not a P-gp substrate” and the efflux ratio (P-gp; human, Caco-2) was < 1. The bioavailability [3] was 4 to 8%, the half-life [4] was > 8 h and the BCS classification ([5]; based on poor aqueous solubility and low Caco-2 permeability) was “BCS Class IV”. For the same molecule, the solubility ([5]; poor aqueous solubility, basis of BCS classification) was < 500 µg/mL, the “thermodynamic aqueous solubility, rank order” value [5] was “HCl>H2SO4>tosylate=free base form” and the permeability (Caco-2 cell model) was “low permeability”.
In the case of H2SO4, the “GVS wt uptake between 0-90% RH” value [1] is reported as “RH 25.5% wt”, the “GVS wt uptake between 40-75% RH” value ([1]; 40-75% RH) is reported as 6.12% wt uptake and the “GVS wt uptake between 75-90% RH” value ([1]; 75-90% RH) is reported as “RH 14.5% wt”. The “XRPD post GVS / XRPD after GVS” value [1] was “Amorphous”, the “Stability 25° C./92% RH (XRPD after 7 days)” value ([2]; 25° C./92% RH) was “Amorphous” and the “Stability 40° C./75% RH (XRPD after 7 days)” value ([2]; 40° C./75% RH) was “Amorphous”.
For Tosylate, the “GVS wt uptake between 0-90% RH” value [1] was 9.5% wt uptake, the “XRPD post GVS / XRPD after GVS” value [1] was “Amorphous” and the “Stability 25° C./92% RH (XRPD after 7 days)” value ([2]; 25° C./92% RH) was “Amorphous”. The “Stability 40° C./75% RH (XRPD after 7 days)” value ([2]; 40° C./75% RH) was “Amorphous”, the “pH of the equilibrated suspension in the solubility determination” value ([5]; measured after equilibration at 25° C. for 24 hours) was 1.52 and the “Aqueous Solubility” value ([5]; scaled-up amorphous salts, final pH printed in the same cell) was 0.00 mgmL^−1. The “thermodynamic aqueous solubility, rank order” value [5] was “HCl>H2SO4>tosylate=free base form”.

— patent publication US20170066779A1, “SOLID FORMS OF A FLAVIVIRIDAE VIRUS INHIBITOR COMPOUND AND SALTS THEREOF” (IDENIX Pharmaceuticals LLC, priority 2014, published 2017)
